The record followed here is patent publication US7959956B2, “Method for treating diabetic complications” (Korea Institute of Oriental Medicine, Ltd., priority 2004, dated 2011).

Series [1] concerns production of advanced glycation endproducts (bovine serum albumin + sugar mixture). As to the kind of experiment: Inhibition of production of advanced glycation endproducts (BSA + fructose/glucose, fluorescence). It counts as biochemical. The procedure:
As a protein source, bovine serum albumin (hereinafter, referred to as “BSA”; Sigma, USA) was used. BSA was dissolved in 50 mM phosphate buffer (pH 7.4) to a concentration of 10 mg/ml.
As a sugar source, a mixture of 0.1 M fructose and 0.1 M glucose was used.
This sugar mixture was added to the prepared BSA solution, for use in tests.
The herbal extract mixture prepared in Example 2 was dissolved in 15% Tween80, and this solution was added to the BSA-sugar mixture and cultured at 37° C. for 30 days. At this time, 0.02% sodium azide was used as an antibacterial agent.
As a control group, a culture consisting of BSA and the sugar mixture was cultured, and as blanks to the control and test groups, the materials for the test group and the materials for the control group were used after preparation without incubation.
In order to reduce errors to the lowest possible extent, 4 samples for each group were used. Just before culturing, the samples were filled with nitrogen gas (99.999% purity) in order to prevent them being contaminated. After 30 days, the content of advanced glycation endproducts in the culture media was analyzed. The advanced glycation endproducts are fluorescent, show a brown color, are crosslinkable, and have ligands which can be recognized by cellular membrane receptors. The amount of the advanced glycation endproducts with such properties was measured with a spectrophotometer (excitation at 350 nm and release at 450 nm) so as to determine the inhibition of production of the advanced glycation endproducts.
The inhibition (%) of production of advanced glycation endproducts was calculated according to the following equation: Inhibition (%) of production=100−[(fluorescent intensity of test group−fluorescent intensity of blank to test group)/(fluorescent intensity of control group−fluorescent intensity of blank to control group)]×100
The part (1) of this Example was repeated except that extract from each of Euphorbiae radix, gingered Magnolia bark, parched Puerariae radix and Glycyrrhizae radix was dissolved in 15% Tween80 and cultured for 90 days.
Magnolol was dissolved in distilled water at concentrations of 3.33 μg/ml, 6.66 μg/ml, 13.32 μg/ml and 26.6 μg/ml, and then cultured for 37° C. for 30 days in the same manner as in the above part (1).
aminoguanidine, a positive control group, was tested in the same manner as in the above part (1) except that aminoguanidine was dissolved in distilled water at selected concentrations and cultured for 30 days and 90 days.

Series [2] has as its system streptozotocin diabetes-induced SD rats. As to the kind of experiment: Streptozotocin diabetic rats: body weight, feed and water intake. It counts as in vivo, rat. The source says: Four-week-old SD male rats weighing 120-140 g were housed in cages at one animal for each cage and allowed for access to general solid food and water while adapting the animals to an animal room of this institute (the applicant).
(§1) The test animals were divided into the following four groups: (1) a normal group administered with carboxymethyl cellulose (NC+CMC); (2) a diabetes-induced group administered with carboxymethylcellulose (DC+CMC); (3) a diabetes-induced group administered with the herbal extract mixture (DC+HMP); (4) and a diabetes-induced group administered with a positive control (Eparlestat) (DC+S11). The diabetes-induced groups each consisted of 9-10 animals, and the normal group consisted of 5-6 animals. The body weights of the animals were similar between the test groups.
(§2) The test animals were adapted to the animal room and then fasted overnight. Streptozotocin was dissolved in 0.1 M citrate buffer (pH 4.5), and just then, injected into the abdominal cavities of the fasted animals at a dose of 60 mg/kg. At 2 days after administering the streptozotocin solution, tail vein blood was sampled from the animals and examined for blood glucose level. Rats having a blood glucose level of more than […] were determined to be diabetes-induced rats.
To examine a therapeutic effect against chronic diabetic complications, the rats was continued to maintain in diabetic conditions for 30 days. From day 31, the rats were administered with the drugs for 8 weeks.
Since the herbal extract mixture (HMP) and Epalrestat (S11) used in the tests are insoluble in water, they were dissolved in 1% carboxymethylcellulose before use. The normal group was administered with carboxylmethylcellulose so as to eliminate an effect caused by carboxylmethylcellulose.
(§3) For the two diabetes-induced groups other than the normal group, each of 1 g/kg of the herbal extract mixture (HMP) and 25 mg/kg of Epalrestat (S11) was dissolved in 1% CMC and administered orally to the rats by a sonde daily for 8 weeks.
After administering the samples during the administration period, the test animals were fasted for at least 15 hours at one day before autopsy, and then measured for body weight.
The body weight was measured every day, the feed intake was measured one time a week, and the water intake was measured every day.

For series [3] the test system is unchanged. In words: Streptozotocin diabetic rats: anti-cataract effect (eye lens opacity). It counts as in vivo, rat. Conditions: for Eye lens's opacity (%): mean.
From the text: as §1, §2, §3
From the eyeballs removed under a microscope, the eye lenses were separated and transferred onto 24-well plates each containing 2 ml of a saline solution. Then, the eye lenses were photographed with a digital camera. The opacity of the eye lenses was analyzed by the use of an imaging system program.
The eye lenses were photographed with a camera and measured for weight. Then, the eye lenses were placed in phosphate buffer (pH 6.9) and homogenized at 4° C. For use in the measurement of enzymatic activity, some of the homogenized solution was centrifuged at 3,000 rpm for 20 minutes, and the supernatant was collected and stored at −80° C. For use in the measurement of content of sorbitol, etc., the remaining homogenized solution was added with ZnSO4 and NaOH so as to remove protein, and centrifuged at 3,000 rpm for 20 minutes, and the supernatant was collected and stored at −80° C.
The results of visual observation for the eyeballs are shown in FIG. 9, and the results of camera observation for the eye lenses are shown in FIG. 10.

The test system is the same in series [4]. As to the kind of experiment: Streptozotocin diabetic rats: organ weight. To be noted: oral daily 8 weeks. It counts as in vivo, rat.
From the text: as §1, §2, §3
One day before autopsy, the test animals were fasted for at least 15 hours and then measured for body weight. Then, the animals were anesthetized with ethyl ether, from which blood was collected via the abdominal aorta. Some of the collected blood was treated with heparin, and some of whole blood was centrifuged at 3,000 rpm and 4° C. for 15 minutes. From each of the blood samples, plasma was isolated and stored at −80° C. before use in data analysis.
The kidneys of the animals were removed after washing by perfusion and measured for weight. Next, the kidneys were separated into cortex and medulla, which were rapidly cooled and stored at −80° C. In addition, the liver, lungs, pancreas, spleen and heart were separated and measured for weight.

The test system is the same in series [5]. In words: Streptozotocin diabetic rats: biochemical factors in serum. It counts as in vivo, rat. To be noted: oral daily 8 weeks; for Glucose level: plasma.
From the text: as §1, §2, §3
At two-week intervals up to before autopsy, blood was taken from the orbital veins and measured for plasma glucose level with a glucose kit. The plasma glucose level was measured at 500 nm UV by a glucose oxidase method.
BUN was determined by measuring absorbance at 580 nm by a urease-indophenol method.
Triglyceride content was quantified by measuring absorbance at 550 nm by an enzymatic method (POD).
Total cholesterol level was determined by measuring absorbance at 500 nm by an enzymatic method.
Creatinine was determined by measuring absorbance at 515 nm by a modified Jaffe's method.
Protein in serum was determined by BCA assay. Serum was reacted with a bicinchonicic acid solution of bicinchonicic acid, Na2CO3, NaHCO3 and C4H4O6Na2.2H2O in 0.1N NaOH and a 4% CuSO4.5H2O solution and then measured for absorbance at 562 nm.

Setting [6] is: diabetes-induced rats, oral daily 8 weeks.

As for `N=C(N)NN` [Aminoguanidine, aminoguanidine], the “Inhibition (%) of production of advanced glycation endproducts” value in series [1] (bovine, 30 days, 27.5 μg/ml, pH 7.4) came out at 45.78 ± 2.400%; in series [1] (bovine, 30 days, 55 μg/ml, pH 7.4) it was 55.43 ± 4.000%; in series [1] (bovine, 30 days, 110 μg/ml, pH 7.4), 73.52 ± 1.750%; in series [1] (bovine, 30 days, 550 μg/ml, pH 7.4), 96.41 ± 2.200%; in series [1] (bovine, 90 days, 27.5 μg/ml, pH 7.4) it was 39.647 ± 3.406%; in series [1] (bovine, 90 days, 110 μg/ml, pH 7.4), 65.714 ± 5.394%. The “IC50 (μg/ml), inhibition of production of advanced glycation endproducts” value in series [1] (bovine, 30 days, pH 7.4) came out at 34.90 µg/mL; in series [1] (bovine, 90 days, pH 7.4), 30.80 µg/mL.
Consider `CC(/C=C1\SC(=S)N(CC(=O)O)C1=O)=C\c1ccccc1` [Epalrestat (S11)], for which, in series [2] (oral daily 8 weeks), the “Feed intake compared to diabetes-induced group” value was “more feed than that of the diabetes-induced group” and the “Water intake compared to diabetes-induced group” value is “more water than that of the diabetes-induced group”. Further, the “Increase in body weight” value in series [2] (oral daily 8 weeks (HMP 1 g/kg, S11 25 mg/kg)) came out at 129.21 g. Besides, in series [3] (setting [6]), the “Eye lens's opacity (%)” value was 37.38±13.56%. In addition, the “Animals with cataract symptoms in both eyeballs on the day of autopsy” value in series [3] (visual observation of eyeballs, FIG. 9) is “four of seven”.
Consider `CC(/C=C1\SC(=S)N(CC(=O)O)C1=O)=C\c1ccccc1` [Epalrestat], for which the “Body weight, early stage” value in series [2] (oral daily 8 weeks (HMP 1 g/kg, S11 25 mg/kg), early stage) came out at 154.03 ± 45.46 g. The “Body weight, end stage” value in series [2] (oral daily 8 weeks (HMP 1 g/kg, S11 25 mg/kg), end stage) is 283.24 ± 42.60 g. Also, in series [4], the “Heart absolute weight” value is given as 0.95 ± 0.11 g, the “Heart relative weight (%)” value is listed as 0.34 ± 0.03 %, the “Kidneys absolute weight” value came out at 3.18 ± 0.30 g and the “Kidneys relative weight (%)” value was determined as 1.14 ± 0.11 %. Moreover, in series [4], the “Liver absolute weight” value is 11.63 ± 1.08 g, the “Liver relative weight (%)” value was found to be 4.15 ± 0.40 %, the “Lungs absolute weight” value came to 1.55 ± 0.13 g and the “Lungs relative weight (%)” value was 0.55 ± 0.06 %. Moreover, in series [4], the “Pancreas absolute weight” value was found to be 0.86 ± 0.11 g, the “Pancreas relative weight (%)” value came out at 0.31 ± 0.05 %, the “Spleen absolute weight” value is 0.54 ± 0.09 g and the “Spleen relative weight (%)” value is listed as 0.19 ± 0.02%. For the same compound, in series [5], the “BUN” value amounted to 23.60 ± 5.15 mg/dL, the “Creatinin” value stood at 1.22 ± 0.16 mg/dL, the “Total cholesterol” value was found to be 59.50 ± 13.88 mg/dL and the “Triglyceride” value was 46.18 ± 8.26 mg/dL. Besides, in series [5], the “Glucose level” value is 197.94 mg/dL. Besides, the “Glucose level” value in series [5] (listed as S11) is 197.94 ± 76.66 mg/dL. For the same compound, the “Protein” value in series [5] (serum, BCA assay) was 10.79 ± 0.85 µg/µL. In addition, the “Eye lens's opacity (20 pixels/m^2)” value in series [3] (setting [6]) is given as 134.04 ± 45.00 20 pixels/m^2. Moreover, the “Eye lens's opacity (%)” value in series [3] (diabetes-induced rats, oral daily 8 weeks, listed as S11) was 37.38 ± 13.56 %.
Consider `C=CCc1ccc(O)c(-c2cc(CC=C)ccc2O)c1` [Magnolol, magnolol], for which the “Inhibition (%) of production of advanced glycation endproducts” value stood at 36.36 ± 1.61% in series [1] (3.33 μg/ml, cultured for 30 days); 55.75 ± 2.11% in series [1] (6.66 μg/ml, cultured for 30 days); 77.05 ± 1.70% in series [1] (13.32 μg/ml, cultured for 30 days); 100% in series [1] (26.64 μg/ml, cultured for 30 days). Further, the “IC50 (μg/ml), inhibition of production of advanced glycation endproducts” value in series [1] (cultured for 30 days, 37° C.) came to 5.36 µg/mL.
